Test results published in ChEMBL document CHEMBL6103654, “Design, Biological Characterization, and Discovery of Capromorelin Derivatives as Oral Growth Hormone Secretagogue Receptor Type 1a Agonist for the Treatment of Growth Hormone Deficiency” (J Med Chem, 2025).
pEC50: −log10 of the molar value.

Columns and labels:
[1] = Agonist activity at human GHSR expressed in CHO cells incubated for 60 min by FLIPR assay; assay type: cell-based; conditions: 1 h
CHO [2] = experiment: Agonist activity at human GHSR expressed in CHO cells at maximum concentration incubated for 60 min by FLIPR assay relative to control; assay type: cell-based
[3] = Clearance in male Sprague-Dawley rat plasma at 1 mg/kg, iv administered as single dose measured after 4 hrs; assay type: ADME, organism-based
[4] = Elimination half life in male Sprague-Dawley rat at 1 mg/kg, iv administered as single dose measured after 4 hrs; assay type: ADME, organism-based; conditions: in vivo, read-out: beta t1/2 (converted)
[5] = Volume of distribution in male Sprague-Dawley rat at 1 mg/kg, iv administered as single dose measured after 4 hrs; assay type: ADME, organism-based; conditions: in vivo
[6] = Tmax in male Sprague-Dawley rat at 2 mg/kg, po administered as single dose measured after 4 hrs; assay type: ADME, organism-based; conditions: in vivo
[7] = Cmax in male Sprague-Dawley rat at 2 mg/kg, po administered as single dose measured after 4 hrs; assay type: ADME, organism-based; conditions: in vivo
Rattus norvegicus [8] = experiment: Induction of growth hormone level in Juvenile Sprague-Dawley rat blood at 0.1 mg/kg, po administered as single dose measured after 2 hrs by ELISA method (reference value: 26.5+/-7.3 ng/mL); assay type: functional
[9] = AUC in male Sprague-Dawley rat at 2 mg/kg, po administered as single dose measured after 4 hrs; assay type: ADME, organism-based; conditions: in vivo
Rattus norvegicus [10] = experiment: Induction of growth hormone level in Juvenile Sprague-Dawley rat blood by measuring AUC(0 to 40 mins) at 0.1 mg/kg, po administered as single dose by ELISA method (reference value: 20.2+/-4.3 ng/mL); assay type: functional, organism-based; conditions: time 4.0 hrs
Rattus norvegicus [11] = experiment: Induction of growth hormone level in Juvenile Sprague-Dawley rat blood at 0.1 mg/kg, po administered as single dose measured after 1 hr by ELISA method (reference value: 45.2+/-12.5 ng/mL); assay type: functional
[12] = Oral bioavailability in male Sprague-Dawley rat at 2 mg/kg administered as single dose measured after 4 hrs; assay type: ADME, organism-based; conditions: in vivo
Rattus norvegicus [13] = experiment: Induction of growth hormone level in Juvenile Sprague-Dawley rat blood at 0.1 mg/kg, po administered as single dose measured after 4 hrs by ELISA method (reference value: 32.5+/-4.5 ng/mL); assay type: functional
Rattus norvegicus [14] = experiment: Induction of growth hormone level in Juvenile Sprague-Dawley rat blood at 0.1 mg/kg, po administered as single dose measured immediately by ELISA method (reference value: 28.5+/-8.7 ng/mL); assay type: functional
[15] = target: Growth hormone secretagogue receptor type 1 (Rattus norvegicus, UniProt O08725); experiment: Agonist activity at rat GHSR expressed in CHO cells incubated for 60 min by FLIPR assay; assay type: functional, cell-based
Sequence of Growth hormone secretagogue receptor type 1 (O08725 whole entry): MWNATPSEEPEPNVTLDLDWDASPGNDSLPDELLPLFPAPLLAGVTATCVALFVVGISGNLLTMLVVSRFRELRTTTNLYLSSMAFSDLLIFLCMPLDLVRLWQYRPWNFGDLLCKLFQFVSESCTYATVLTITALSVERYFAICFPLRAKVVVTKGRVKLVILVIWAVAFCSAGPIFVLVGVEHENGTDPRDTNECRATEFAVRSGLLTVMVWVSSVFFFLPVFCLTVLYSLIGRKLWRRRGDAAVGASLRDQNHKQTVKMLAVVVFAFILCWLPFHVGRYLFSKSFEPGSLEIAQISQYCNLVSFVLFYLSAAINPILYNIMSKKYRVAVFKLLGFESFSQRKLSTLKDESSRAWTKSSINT

Rattus norvegicus [16] = experiment: Induction of growth hormone level in adult Sprague-Dawley rat blood at 0.5 mg/kg, po administered as single dose measured immediately by ELISA method (reference value: 12.6+/-4.4 ng/mL); assay type: functional
Rattus norvegicus [17] = experiment: Induction of growth hormone level in adult Sprague-Dawley rat blood at 0.5 mg/kg, po administered as single dose measured after 20 mins by ELISA method (reference value: 4.9+/-1.1 ng/mL); assay type: functional
Rattus norvegicus [18] = experiment: Induction of growth hormone level in Juvenile Sprague-Dawley rat blood at 0.1 mg/kg, po administered as single dose measured after 20 mins by ELISA method (reference value: 29.1+/-8.6 ng/mL); assay type: functional
Rattus norvegicus [19] = experiment: Induction of growth hormone level in Juvenile Sprague-Dawley rat blood at 0.1 mg/kg, po administered as single dose measured after 10 mins by ELISA method (reference value: 23.2+/-5.6 ng/mL); assay type: functional
CHO [20] = experiment: Agonist activity at monkey GHSR expressed in CHO cells at maximum concentration incubated for 60 min by FLIPR assay relative to control; assay type: cell-based; conditions: Macaca mulatta, filed as agonist
[21] = Agonist activity at dog GHSR expressed in CHO cells incubated for 60 min by FLIPR assay; assay type: cell-based; conditions: 1 h
[22] = Elimination half life in male Sprague-Dawley rat at 2 mg/kg, po administered as single dose measured after 4 hrs; assay type: ADME, organism-based; conditions: in vivo, read-out: beta t1/2 (converted)
Rattus norvegicus [23] = experiment: Induction of growth hormone level in adult Sprague-Dawley rat blood by measuring AUC(0 to 40 mins) at 0.5 mg/kg, po administered as single dose by ELISA method (reference value: 7.0+/-1.7 ng/mL); assay type: functional, organism-based
Rattus norvegicus [24] = experiment: Induction of growth hormone level in adult Sprague-Dawley rat blood at 0.5 mg/kg, po administered as single dose measured after 40 mins by ELISA method (reference value: 14.4+/-6.9 ng/mL); assay type: functional
[25] = Agonist activity at monkey GHSR expressed in CHO cells incubated for 60 min by FLIPR assay; assay type: cell-based; conditions: Macaca mulatta, 1 h
Rattus norvegicus [26] = experiment: Induction of growth hormone level in adult Sprague-Dawley rat blood at 0.5 mg/kg, po administered as single dose measured after 10 mins by ELISA method (reference value: 13.7+/-7.2 ng/mL); assay type: functional
CHO [27] = experiment: Agonist activity at dog GHSR expressed in CHO cells at maximum concentration incubated for 60 min by FLIPR assay relative to control; assay type: cell-based; conditions: Canis lupus familiaris, filed as agonist
Rattus norvegicus [28] = experiment: Induction of growth hormone level in Juvenile Sprague-Dawley rat blood at 0.1 mg/kg, po administered as single dose measured after 40 mins by ELISA method (reference value: 40.1+/-11.0 ng/mL); assay type: functional
[29] = target: Growth hormone secretagogue receptor type 1 (Rattus norvegicus) (UniProt O08725); experiment: Agonist activity at rat GHSR expressed in CHO cells at maximum concentration incubated for 60 min by FLIPR assay relative to control; assay type: functional, cell-based; conditions: filed as agonist
Sequence of Growth hormone secretagogue receptor type 1 (Rattus norvegicus) (O08725 whole entry): as above

SMILES: CN1N=C2CC3CCC(N3C(=O)[C@@H](COCc3ccccc3)NC(=O)C(C)(C)N)[C@@]2(Cc2ccccc2)C1=O (some centres undefined)
- pEC50 [1]: 7.98
- Activity (CHO [2]; filed as agonist): 104%

SMILES: CC(C)(N)C(=O)N[C@H](COCc1ccccc1)C(=O)N1CCC2=NOC(=O)[C@]2(Cc2ccccc2)C1
- clearance [3]: 169 mL/min/kg
- half-life [4]: 86.4 min
- Vd [5]: 22.8 L/kg
- Tmax [6]: 15 min
- Cmax [7]: 54 ng/mL
- pEC50 [1]: 9.06
- Activity (CHO [2]; filed as agonist): 106%

SMILES: CC1N(C(=O)[C@@H](COCc2ccccc2)NC(=O)C(C)(C)N)CCC2=NN(C)C(=O)[C@@]21Cc1ccccc1 (some centres undefined)
- pEC50 [1]: 6.80
- Activity (CHO [2]; filed as agonist): 97.4%

SMILES: CC(C)(N)C(=O)N[C@H](COCc1ccccc1)C(=O)N1CCC2=NN(C3CC3)C(=O)[C@]2(Cc2ccccn2)C1
- Activity (Rattus norvegicus [8]): 34.5 ng/mL
- AUC at 4 h [9]: 186 ng·h/mL
- clearance [3]: 48 mL/min/kg
- half-life [4]: 48 min
- Vd [5]: 3.3 L/kg
- Tmax [6]: 15 min
- AUC (Rattus norvegicus [10]): 104 ng·h/mL
- Activity (Rattus norvegicus [11]): 54.5 ng/mL
- Cmax [7]: 139 ng/mL
- bioavailability [12]: 26.2%
- Activity (Rattus norvegicus [13]): 61.1 ng/mL
- Activity (Rattus norvegicus [14]): 65.8 ng/mL
- pEC50 [15]: 10.68
- Activity (Rattus norvegicus [16]): 17.2 ng/mL
- Activity (Rattus norvegicus [17]): 81.8 ng/mL
- Activity (Rattus norvegicus [18]): 220.5 ng/mL
- Activity (Rattus norvegicus [19]): 168.5 ng/mL
- Activity (CHO [20]): 104%
- pEC50 [21]: 10.04
- half-life [22]: 72.6 min
- pEC50 [1]: 9.10
- AUC (Rattus norvegicus [23]): 58.6 ng·h/mL
- Activity (Rattus norvegicus [24]): 41.9 ng/mL
- pEC50 [25]: 10.17
- Activity (Rattus norvegicus [26]): 178.4 ng/mL
- Activity (CHO [27]): 87.4%
- Activity (Rattus norvegicus [28]): 91.8 ng/mL
- Activity [29]: 114%
- Activity (CHO [2]; filed as agonist): 123%

SMILES: CC(C)(N)C(=O)N[C@H](COCc1ccccc1)C(=O)N1CCc2ccn(Cc3ccccc3)c2C1
- pEC50 [1]: 6.13
- Activity (CHO [2]; filed as agonist): 47.6%

SMILES: CN1N=C2C3(CC3)CN(C(=O)[C@@H](COCc3ccccc3)NC(=O)C(C)(C)N)C[C@@]2(Cc2ccccc2)C1=O
- pEC50 [1]: 7.53
- Activity (CHO [2]; filed as agonist): 82.1%

SMILES: CC(C)(N)C(=O)N[C@H](COCc1ccccc1)C(=O)N1CCC2=NN(C3COC3)C(=O)[C@]2(Cc2ccccc2)C1
- pEC50 [1]: 7.83
- Activity (CHO [2]; filed as agonist): 99.2%

SMILES: CC(C)(N)C(=O)N[C@H](COCc1ccccc1)C(=O)N1CCC2=NN(CC3CC3)C(=O)[C@]2(Cc2ccccc2)C1
- pEC50 [15]: 11.05
- Activity (CHO [20]): 104%
- pEC50 [21]: 10.37
- pEC50 [1]: 9.05
- pEC50 [25]: 10.47
- Activity (CHO [27]): 120%
- Activity [29]: 97.1%
- Activity (CHO [2]; filed as agonist): 134%

SMILES: Cn1nc2c(c1-c1ccccc1)CCN(C(=O)[C@@H](COCc1ccccc1)NC(=O)C(C)(C)N)C2
- pEC50 [1]: < 6.00
- Activity (CHO [2]): 18.2%

SMILES: CN1N=C2CCN(C(=O)[C@@H](COCc3ccccc3)NC(=O)C3CCNCC3)C[C@@]2(Cc2ccccc2)C1=O
- pEC50 [15]: 7.41
- Activity (CHO [20]): 94.9%
- pEC50 [21]: 6.84
- pEC50 [1]: < 6.00
- pEC50 [25]: 6.99
- Activity (CHO [27]): 91.6%
- Activity [29]: 106%
- Activity (CHO [2]): 30.5%
